According to patent publication EP0348735A2, “5-Chlor-4-cyano-thiazol-2-yl-oxyacetic-acid amide” (BAYER AG, priority 1988, dated 1990):

Tested on: Testpflanzen
Assay: Pre-emergence test (herbicidal activity)
Assay type: in vivo
Conditions: seeds watered with the preparation 24 h after sowing, rated after three weeks, compared in words with the prior-art comparison substance 2-(Benzthiazol-2-yl-oxy)-essigsäure-N-methyl-anilid, no numbers given
From the text: Zur Herstellung einer zweckmäßigen Wirkstoffzubereitung vermischt man 1 Gewichtsteil Wirkstoff mit der angegebenen Menge Lösungsmittel, gibt die angegebene Menge Emulgator zu und verdünnt das Konzentrat mit Wasser auf die gewünschte Konzentration.
Samen der Testpflanzen werden in normalen Boden ausgesät und nach 24 Stunden mit der Wirkstoffzubereitung begossen. Dabei hält man die Wassermenge pro Flächeneinheit zweckmäßigerweise konstant. Die Wirkstoffkonzentration in der Zubereitung spielt keine Rolle, entscheidend ist nur die Aufwandmenge des Wirkstoffs pro Flächeneinheit. Nach drei Wochen wird der Schädigungsgrad der Pflanzen bonitiert in % Schädigung im Vergleich zur Entwicklung der unbehandelten Kontrolle.

## CN(C(=O)COc1nc(C#N)c(Cl)s1)c1ccccc1 [Beispiel 1, 2-(5-Chlor-4-cyanothiazol-2-yl-oxy)-essigsäure-N-methyl-anilid]
  Wirksamkeit (Schädigungsgrad der Pflanzen in % Schädigung im Vergleich zur unbehandelten Kontrolle): deutliche Überlegenheit in der Wirksamkeit
